The record followed here is ChEMBL document CHEMBL1201862, “PubChem BioAssay data set” (2004).

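Exposure lasted 48 hours, with cells grown in 96-well plates and compounds tested at five concentrations. The concentration for 50% growth inhibition is given as GI50.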 Active and inactive are the calls of the source. Rule as the data show it: active = GI50 up to about 1.1 µM and inactive = higher. Bounds are passed on as bounds.

Among the test systems are SNB-19; COLO 205; IGROV-1; A549; TK-10; HCT-116; SF-295; NCI-H226; MOLT-4; M14; EKVX; M19-MEL; DU-145; SF-268; SNB-75; KM-20L2; SN12C; PC-3; SK-MEL-28; HCC 2998.
Test in all cases: NCI anticancer screen, dose series, 48 h

With `C(=N/NC1=NCCN1)/c1c2ccccc2c(/C=N\NC2=NCCN2)c2ccccc12`, the GI50 in the assay with SNB-19 is 74.6 nM (active); in the assay on COLO 205, 54 nM (active); in the assay on IGROV-1, 211 nM (active); with A549, 36.9 nM (active); in the assay on TK-10 it was 1030 nM (active); with HCT-116 it was 60.3 nM (active). In addition, the GI50 in the assay on SF-295 is 383 nM (active); in the assay with NCI-H226, 96.6 nM (active); with MOLT-4, 37.6 nM (active); in the assay with M14, 171 nM (active); in the assay with EKVX, 149 nM (active); in the assay on M19-MEL, 75.7 nM (active). Also, the GI50 with DU-145 is 61.9 nM (active); in the assay with SF-268, 73.8 nM (active); in the assay with SNB-75 it was 73.5 nM (active); in the assay with KM-20L2 it was 265 nM (active); in the assay with SN12C it was 111 nM (active); with PC-3 it was 68.7 nM (active). Moreover, the values for the GI50 in the assay on SK-MEL-28 and in the assay with HCC 2998 were 259 nM (active) and 140 nM (active), respectively.
For the molecule `CN(C)CC1CCCCCCCCCC(CN(C)C)C1=O` (stereo not given), the GI50 is > 39700 nM (inactive) with SNB-19; > 38100 nM (inactive) in the assay with COLO 205; > 39900 nM (inactive) in the assay with IGROV-1; > 34800 nM (inactive) with A549; > 37800 nM (inactive) with TK-10; > 26700 nM (inactive) in the assay on HCT-116. The GI50 with SF-295 was > 42100 nM (inactive); in the assay on NCI-H226, > 43000 nM (inactive); in the assay with MOLT-4, 7030 nM (inactive); in the assay on M14, 16900 nM (inactive); in the assay with EKVX it was > 39900 nM (inactive); with M19-MEL it was 63100 nM (inactive). Further, the GI50 in the assay with DU-145 was 12900 nM (inactive); with SF-268, > 34300 nM (inactive); with SNB-75, 17100 nM (inactive); with KM-20L2 it was 61400 nM (inactive); with SN12C, > 25400 nM (inactive); with PC-3, 4410 nM (inactive). In addition, the results for the GI50 in the assay with SK-MEL-28 and in the assay with HCC 2998 were 32100 nM (inactive) and > 100000 nM (inactive), respectively.
